Data reported in patent US11819492B2, “Natural product derivatives for inhibiting cellular necroptosis, ferroptosis and oxytosis” (Institut National de la Sante et de la Recherche Medicale …, priority 2016, dated 2023).

Tests used:
[1] = system: Jurkat FADD-deficient I 2.1 cells; assay: Hallmarks of TNF-α-induced necroptosis (plasma membrane permeabilization, intracellular ATP) in Jurkat FADD-deficient cells; format: cell-based, human; conditions: 0-50 μM, TNF-α 10 ng/ml, 24 hours
Experimental: Cells untreated by TNF-α are used as control (light grey curves). Cells were incubated at 37° C., 5% CO2 for 24 hours before performing the measurements of both plasma membrane permeabilization and intracellular ATP levels. Dead cells were detected by FACS analysis of Propidium Iodide-stained nuclei (FIG. 2). ATP Quantification is performed using the CellTiter-Glo® Luminescent Cell Viability Assay. The luminescent signal produced by a luciferase reaction is proportional to the amount of ATP present and the amount of ATP is directly proportional to the number of metabolically active cells (n=4) (FIG. 3).

[2] = system: hRPE-1 cells; assay: Cytotoxicity on human retinal pigment epithelial cell line (MTS); format: cell-based; conditions: 0-50 μM tested, 24 hours, FIG. 5
Text: A colorimetric MTS assay was used to calculate the percentage of cell viability.

[3] = biological target: T1, Human RIPK1 full length GST-tagged (Homo sapiens, UniProt Q13546); assay: RIPK1 autophosphorylation assay; format: biochemical
T1 construct: Human RIPK1 full length GST-tagged; made in house; host or cells: Sf9 insect cells (baculovirus, Bac-to-Bac)
T1 sequence (Q13546 1-671): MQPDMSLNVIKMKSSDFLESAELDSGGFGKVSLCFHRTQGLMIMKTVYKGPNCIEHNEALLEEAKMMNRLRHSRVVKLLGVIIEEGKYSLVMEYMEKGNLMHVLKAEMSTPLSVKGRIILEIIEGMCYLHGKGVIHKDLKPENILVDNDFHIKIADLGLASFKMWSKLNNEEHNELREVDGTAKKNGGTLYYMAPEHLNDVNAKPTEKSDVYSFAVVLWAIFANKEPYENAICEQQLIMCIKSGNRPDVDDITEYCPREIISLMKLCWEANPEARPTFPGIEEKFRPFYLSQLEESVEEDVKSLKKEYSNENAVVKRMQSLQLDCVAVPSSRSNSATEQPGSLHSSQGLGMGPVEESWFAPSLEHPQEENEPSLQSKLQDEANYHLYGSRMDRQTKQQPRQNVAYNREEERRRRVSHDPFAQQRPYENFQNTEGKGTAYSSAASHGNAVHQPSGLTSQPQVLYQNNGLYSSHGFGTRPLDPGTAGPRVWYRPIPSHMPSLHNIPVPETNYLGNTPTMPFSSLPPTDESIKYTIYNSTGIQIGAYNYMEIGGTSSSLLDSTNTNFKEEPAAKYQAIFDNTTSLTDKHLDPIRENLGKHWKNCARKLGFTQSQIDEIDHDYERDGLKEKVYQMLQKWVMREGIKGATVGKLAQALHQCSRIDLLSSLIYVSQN
Experimental: RIPK1 Autophosphorylation Assay: • Human RIPK1 full length GST-tagged was baculovirally expressed in Sf9 cells according to manufacturer's instructions (Bac-to-Bac expression system, Invitrogen) and purified using gluthation-sepharose beads (GE Healthcare). The elution was made in 50 mM Tris-HCl, pH 8.0 buffer supplemented with 30 mM reduced gluthathione (Sigma). The protocol used to detect the enzymatic activity is adapted from Miao and Degterev (Methods Mol. Biol. 2009, 559, 79-93). Kinase reaction was initiated mixing 5 μl of eluted RIPK1, 5 μl of 3X kinase reaction buffer (5 mM MOPS pH 7.2, 2.5 mM β-glycerophosphate, 4 mM MgCl2, 2.5 mM MnCl2, 1 mM EGTA, 0.4 mM EDTA, 50 μg/ml BSA, 0.05 mM DTT), 2 μl H2O and 3 μl of the tested molecule. The mixture was kept on ice for 10 minutes. […] ATP. The ATP solution and the tested inhibitor were added to the kinase and incubated for 30 minutes at 30° C. To stop the enzymatic reaction, 5 μl of loading buffer were added and solution was heated for 3 minutes at 95° C. 25 μl of each reaction were loaded per well in pre-cast NuPage 12% Bis-Tris gel (Life Technology). Necrostatin-1, a well-described inhibitor of RIPK1, was used as an internal control. Coomassie staining was performed in order to estimate the total amount of protein loaded on polyacrylamide gel. […]

[4] = system: 456 kinases, including eight lipid kinases; assay: KINOMEscan Max competition binding assay, profiling against 456 kinases; parameters: species or system human; conditions: poor affinity = over 30% of kinase still on the affinity matrix, FIG. 8
Experimental: This experimental approach quantitatively measures the ability of a compound to compete with an immobilized, active-site directed ligand. […] The ability of compound 1 to compete with the immobilized ligand is measured via quantitative PCR of the DNA tag. The codes reported on the FIG. 8 indicate the subclasses of protein kinases: CMGC for CDKs, MAP kinases, GSK and CDK-like kinases; AGC for Protein kinase A, G, and C families (PKA, PKC, PKG); CAMK for Ca2+/calmodulin-dependent protein kinases; CK1, Cell Kinases 1 (originally known as Casein Kinase 1); STE, STE Kinases (Homologs of yeast STErile kinases); TKL, Tyrosine Kinases-Like; TK, Tyrosine Kinases. Each kinase tested in the assay panel is marked with a circle. The hit kinase reported, RIPK1, is marked with a black circle.

[5] = system: Murine hippocampal neuronal cell line HT22; assay: Erastin-induced ferroptosis in HT22 cells, MTS viability assay; format: cell-based; conditions: 1 μM erastin, 24 hours, FIG. 14
Experimental: Murine hippocampal neuronal cell line HT22 was treated with 10 mM of (L)-glutamate (oxytosis initiator) or 1 μM erastin (ferroptosis initiator).
Cells were then incubated at 37° C., 5% CO2 for 24 hours before performing MTS viability assay. Cell viability was monitored using CellTiter 96® AQueous Non-Radioactive Cell Proliferation Assay (Promega, Fitchburg, WI, USA), based on the water-soluble tetrazolium compound MTS (3-[4,5-dimethylthiazol-2-yl]-5-[3-carboxymethoxy-phenyl]-2-[4-sulfophenyl]-2H-tetrazolium, inner salt) according to the manufacturers instructions.

[6] = system: Porcine LLC-PK1 cells (kidney proximal tubule cell line); assay: Cold-induced cell death (cold storage), MTS viability assay; format: cell-based; conditions: 24 hours at 4° C.
Experimental: At it was previously shown (Ahlenstiel et al. Transplantation […], 81(2), 231-239), cold storage induces a cell-death process. Porcine LLC-PK1 cells (kidney proximal tubule cell line) were stored at approximately 4° C. during 24 hours with or without the tested molecules. […] Cells were then incubated at 37° C., 5% CO2 before performing MTS viability assay. Cell viability was monitored using CellTiter 96® AQueous Non-Radioactive Cell Proliferation Assay (Promega, Fitchburg, WI, USA), based on the water-soluble tetrazolium compound MTS (3-[4,5-dimethylthiazol-2-yl]-5-[3-carboxymethoxy-phenyl]-2-[4-sulfophenyl]-2H-tetrazolium, inner salt) according to the manufacturers instructions.

effect of high ATP concentrations on inhibition of RIPK1 auto-phosphorylation ([3]; high ATP concentrations (e.g. 1 mM), FIG. 7): not affected | specificity for RIPK1 among the large panel of tested kinases [4]: high specificity
Structure (SMILES): COc1cc(O)c2c(c1)OC(O)(c1ccc(OCc3ccccc3)cc1)CC2=O (stereo not drawn) [compound 1]
plasma membrane permeabilization induced by TNF-α (Propidium Iodide, FACS) ([1]; FIG. 2): inhibits | ATP depletion induced by TNF-α (CellTiter-Glo) ([1]; FIG. 3): inhibits | cytotoxicity towards hRPE-1 cells [2]: not cytotoxic | inhibition of RIPK1 autophosphorylation ([3]; [γ-32P] ATP, 30 minutes at 30° C., FIG. 6): inhibits the RIPK1 autophosphorylation in a dose-dependent way | concentration that protects cells from death induced by erastin [5]: > 25 µM | protection from death induced by cold storage ([6]; 0.01-50.00 μM, FIGS. 16a, 16b): protects cells from death induced by cold storage | concentration of maximal activity against cold-induced cell death [6]: 504
